Results taken from US6451736B1, “Substituted aromatic thiocarboxylic acid amides and their use as herbicides” (Bayer Aktiengesellschaft, priority 1994, dated 2002).

Columns and labels:
Format in all cases: in vivo
Portulaca = assay: Pre-emergence test/greenhouse; settings: after three weeks
Procedure: (§1) To produce a suitable preparation of active compound, 1 part by weight of active compound is mixed with the stated amount of solvent, the stated amount of emulsifier is added and the concentrate is diluted with water to the desired concentration.
(§2) Seeds of the test plants are sown in normal soil and, after 24 hours, watered with the preparation of active compound. It is expedient to keep constant the amount of water per unit area. The concentration of the active compound in the preparation is of no importance, only the amount of active compound applied per unit area being decisive. After three weeks, the degree of damage to the plants is rated in % damage in comparison to the development of the untreated control. The figures denote:
(§3) 0%=no action (like untreated control)

Amaranthus [1] = assay: Pre-emergence test/greenhouse; settings: after three weeks
Procedure: as §1, §2, §3

Solanum [2] = assay: Pre-emergence test/greenhouse; settings: after three weeks
Procedure: as §1, §2, §3

Barley = assay: Pre-emergence test/greenhouse; settings: Table A, 125 g/ha, after three weeks
Procedure: as §1, §2, §3

Wheat [3] = assay: Pre-emergence test/greenhouse; settings: Table B, after three weeks
Procedure: as §1, §2, §3

Matricaria = assay: Pre-emergence test/greenhouse; settings: after three weeks
Procedure: as §1, §2, §3

Chenopodium [4] = assay: Pre-emergence test/greenhouse; settings: after three weeks
Procedure: as §1, §2, §3

Maize [5] = assay: Pre-emergence test/greenhouse; settings: after three weeks
Procedure: as §1, §2, §3

Abuthilon [6] = assay: Pre-emergence test/greenhouse; settings: Table B, after three weeks
Procedure: as §1, §2, §3

Amaranthus [7] = assay: Post-emergence test/greenhouse; settings: Table C, after three weeks
Procedure: as §1
(§4) Test plants which have a height of 5-15 cm are sprayed with the preparation of active compound in such a way as to apply the particular amounts of active compound desired per unit area. After three weeks, the degree of damage to the plants is rated in % damage in comparison to the development of the untreated control.
(§5) 0%=no action (like intreated control)

Solanum [8] = assay: Post-emergence test/greenhouse; settings: Table C, after three weeks
Procedure: as §1, §4, §5

Wheat [9] = assay: Post-emergence test/greenhouse; settings: Table C, after three weeks
Procedure: as §1, §4, §5

Chenopodium [10] = assay: Post-emergence test/greenhouse; settings: Table C, after three weeks
Procedure: as §1, §4, §5

Maize [11] = assay: Post-emergence test/greenhouse; settings: Table C, after three weeks
Procedure: as §1, §4, §5

Abuthilon [12] = assay: Post-emergence test/greenhouse; settings: Table C, after three weeks
Procedure: as §1, §4, §5

Veronica = assay: Post-emergence test/greenhouse; settings: Table C, after three weeks
Procedure: as §1, §4, §5

Row | Structure (SMILES) | degree of damage, Portulaca (Portulaca; Table A, 125 g/ha) | degree of damage, Portulaca (Portulaca; Table B, 60 g/ha) | degree of damage, Amaranthus (Amaranthus [1]; Table A, 125 g/ha) | degree of damage, Amaranthus (Amaranthus [1]; Table B, 60 g/ha) | degree of damage, Solanum (Solanum [2]; Table A, 125 g/ha) | degree of damage, Solanum (Solanum [2]; Table B, 60 g/ha) | degree of damage, Barley (Barley) | degree of damage, Wheat (Wheat [3]; 60 g/ha) | degree of damage, Matricaria (Matricaria; Table A, 125 g/ha) | degree of damage, Matricaria (Matricaria; Table B, 60 g/ha) | degree of damage, Chenopodium (Chenopodium [4]; Table A, 125 g/ha) | degree of damage, Chenopodium (Chenopodium [4]; Table B, 60 g/ha) | degree of damage, Maize (Maize [5]; Table A, 125 g/ha) | degree of damage, Maize (Maize [5]; Table B, 60 g/ha) | degree of damage, Abuthilon (Abuthilon [6]; 60 g/ha) | degree of damage, Amaranthus (Amaranthus [7]; 8 g/ha) | degree of damage, Solanum (Solanum [8]; 8 g/ha) | degree of damage, Wheat (Wheat [9]; 8 g/ha) | degree of damage, Chenopodium (Chenopodium [10]; 8 g/ha) | degree of damage, Maize (Maize [11]; 8 g/ha) | other results
1 | CCS(=O)(=O)Nc1cc(-n2nc(C(F)F)n(C)c2=S)c(F)cc1C(N)=S [Example 3, 2-(2-fluoro-4-thiocarbamoyl-5-ethylsulphonylaminophenyl)-4-methyl-5-difluoromethyl-2,4-dihydro-3H-1,2,4-triazole-3-thione] | 100% | 100% | 100% | 100% | 100% | 100% | 0% | 0% | 100% | 100% | 100% | 100% | 0% | 0% | 100% |  |  |  |  |  | degree of damage, Amaranthus (Amaranthus [7]; 30 g/ha): 100%; degree of damage, Solanum (Solanum [8]; 30 g/ha): 100%; degree of damage, Wheat (Wheat [9]; 30 g/ha): 10%; degree of damage, Chenopodium (Chenopodium [10]; 30 g/ha): 100%; degree of damage, Maize (Maize [11]; 30 g/ha): 30%; degree of damage, Abuthilon (Abuthilon [12]; 30 g/ha): 100%; degree of damage, Veronica (Veronica; 30 g/ha): 100%
2 | CCn1c(C(F)(F)F)nn(-c2cc(NS(=O)(=O)CC)c(C(N)=S)cc2F)c1=O [Example 5] | 90% |  | 100% |  | 100% |  | 0% |  | 90% |  | 100% |  | 0% |  |  |  |  |  |  |  | degree of damage, Portulaca (Portulaca; Table B, 125 g/ha): 90%; degree of damage, Amaranthus (Amaranthus [1]; Table B, 125 g/ha): 100%; degree of damage, Solanum (Solanum [2]; Table B, 125 g/ha): 100%; degree of damage, Wheat (Wheat [3]; 125 g/ha): 0%; degree of damage, Matricaria (Matricaria; Table B, 125 g/ha): 70%; degree of damage, Chenopodium (Chenopodium [4]; Table B, 125 g/ha): 100%; degree of damage, Maize (Maize [5]; Table B, 125 g/ha): 0%; degree of damage, Abuthilon (Abuthilon [6]; 125 g/ha): 10%; degree of damage, Amaranthus (Amaranthus [7]; 15 g/ha): 100%; degree of damage, Solanum (Solanum [8]; 15 g/ha): 100%; degree of damage, Wheat (Wheat [9]; 15 g/ha): 10%; degree of damage, Chenopodium (Chenopodium [10]; 15 g/ha): 100%; degree of damage, Maize (Maize [11]; 15 g/ha): 20%; degree of damage, Abuthilon (Abuthilon [12]; 15 g/ha): 100%; degree of damage, Veronica (Veronica; 15 g/ha): 100%
3 | C#CC(C)Oc1cc(-n2nc(C(F)F)n(C)c2=S)c(F)cc1C(N)=S (stereo not shown) [Example 6] | 100% | 100% | 100% | 100% | 100% | 95% | 0% | 20% | 95% | 100% | 100% | 100% | 30% | 30% | 100% | 100% | 100% | 30% | 100% | 50% | degree of damage, Abuthilon (Abuthilon [12]; 8 g/ha): 100%; degree of damage, Veronica (Veronica; 8 g/ha): 95%
4 | CCN(CC)CC.CCS(=O)(=O)Nc1cc(-n2nc(C)n(NC)c2=O)c(F)cc1C(N)=S [Example 7] | 100% |  | 100% |  | 95% |  | 30% |  | 95% |  | 100% |  | 0% |  |  |  |  |  |  |  | degree of damage, Portulaca (Portulaca; Table B, 125 g/ha): 100%; degree of damage, Amaranthus (Amaranthus [1]; Table B, 125 g/ha): 100%; degree of damage, Solanum (Solanum [2]; Table B, 125 g/ha): 95%; degree of damage, Wheat (Wheat [3]; 125 g/ha): 50%; degree of damage, Matricaria (Matricaria; Table B, 125 g/ha): 95%; degree of damage, Chenopodium (Chenopodium [4]; Table B, 125 g/ha): 100%; degree of damage, Maize (Maize [5]; Table B, 125 g/ha): 0%; degree of damage, Abuthilon (Abuthilon [6]; 125 g/ha): 95%; degree of damage, Amaranthus (Amaranthus [7]; 60 g/ha): 100%; degree of damage, Solanum (Solanum [8]; 60 g/ha): 100%; degree of damage, Wheat (Wheat [9]; 60 g/ha): 10%; degree of damage, Chenopodium (Chenopodium [10]; 60 g/ha): 95%; degree of damage, Maize (Maize [11]; 60 g/ha): 50%; degree of damage, Abuthilon (Abuthilon [12]; 60 g/ha): 100%; degree of damage, Veronica (Veronica; 60 g/ha): 95%
5 | CCS(=O)(=O)Nc1cc(-n2nc(C(F)(F)F)n(C)c2=S)c(F)cc1C(N)=S [Example 31] |  | 100% |  | 100% |  | 100% |  | 0% |  | 100% |  | 100% |  | 0% | 100% | 100% | 100% | 0% | 90% | 70% | degree of damage, Abuthilon (Abuthilon [12]; 8 g/ha): 100%; degree of damage, Veronica (Veronica; 8 g/ha): 100%
6 | Cn1c(C(F)(F)F)nn(-c2cc(NS(C)(=O)=O)c(C(N)=S)cc2F)c1=S [Example 34] |  | 100% |  | 100% |  | 100% |  | 0% |  | 100% |  | 100% |  | 0% | 100% |  |  |  |  |  | degree of damage, Amaranthus (Amaranthus [7]; 15 g/ha): 100%; degree of damage, Solanum (Solanum [8]; 15 g/ha): 100%; degree of damage, Wheat (Wheat [9]; 15 g/ha): 0%; degree of damage, Chenopodium (Chenopodium [10]; 15 g/ha): 100%; degree of damage, Maize (Maize [11]; 15 g/ha): 30%; degree of damage, Abuthilon (Abuthilon [12]; 15 g/ha): 100%; degree of damage, Veronica (Veronica; 15 g/ha): 100%
7 | CC(C)Oc1cc(N2C(=O)C3CCCCN3C2=O)c(F)cc1C(N)=S (stereo not shown) [Example 46] |  | 100% |  | 100% |  | 100% |  | 0% |  | 100% |  | 100% |  | 70% | 100% | 100% | 100% | 15% | 95% | 20% | degree of damage, Abuthilon (Abuthilon [12]; 8 g/ha): 100%; degree of damage, Veronica (Veronica; 8 g/ha): 100%
8 | CCOc1cc(N2C(=O)C3CCCCN3C2=O)c(F)cc1C(N)=S (stereo not shown) [Example 47] |  |  |  |  |  |  |  |  |  |  |  |  |  |  |  | 100% | 100% | 10% | 95% | 10% | degree of damage, Portulaca (Portulaca; Table B, 30 g/ha): 100%; degree of damage, Amaranthus (Amaranthus [1]; Table B, 30 g/ha): 95%; degree of damage, Solanum (Solanum [2]; Table B, 30 g/ha): 100%; degree of damage, Wheat (Wheat [3]; 30 g/ha): 0%; degree of damage, Matricaria (Matricaria; Table B, 30 g/ha): 100%; degree of damage, Chenopodium (Chenopodium [4]; Table B, 30 g/ha): 100%; degree of damage, Maize (Maize [5]; Table B, 30 g/ha): 0%; degree of damage, Abuthilon (Abuthilon [6]; 30 g/ha): 100%; degree of damage, Abuthilon (Abuthilon [12]; 8 g/ha): 100%; degree of damage, Veronica (Veronica; 8 g/ha): 100%
